ChEMBL document CHEMBL1128847, “Inhibition of matrix metalloproteinases by N-carboxyalkyl peptides containing extended alkyl residues At P1'” (Bioorg Med Chem Lett, 1995)

Tests used:
Interstitial collagenase = biological target: T1, Interstitial collagenase (Homo sapiens, UniProt P03956); experiment: Inhibition of human fibroblast collagenase (MMP-1)
T1 sequence (P03956 whole entry): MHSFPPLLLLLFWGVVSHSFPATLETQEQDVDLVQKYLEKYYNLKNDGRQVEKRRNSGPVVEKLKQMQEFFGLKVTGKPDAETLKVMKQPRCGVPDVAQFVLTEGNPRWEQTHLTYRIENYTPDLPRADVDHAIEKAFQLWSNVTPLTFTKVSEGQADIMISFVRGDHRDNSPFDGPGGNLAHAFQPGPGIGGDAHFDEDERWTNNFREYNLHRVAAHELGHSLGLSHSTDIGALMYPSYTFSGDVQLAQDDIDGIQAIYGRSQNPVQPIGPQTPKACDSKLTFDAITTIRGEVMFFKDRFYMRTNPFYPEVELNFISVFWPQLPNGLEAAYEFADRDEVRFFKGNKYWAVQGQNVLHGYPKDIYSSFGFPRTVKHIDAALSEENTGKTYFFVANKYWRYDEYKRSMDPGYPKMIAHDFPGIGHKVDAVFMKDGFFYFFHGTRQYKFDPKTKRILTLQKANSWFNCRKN

[1] = biological target: 72 kDa type IV collagenase (Homo sapiens, UniProt P08253); experiment: Inhibition of human gelatinase A (MMP-2)
Stromelysin-1 = Stromelysin-1 (Homo sapiens, UniProt P08254)
Sequence of Stromelysin-1 (P08254 whole entry): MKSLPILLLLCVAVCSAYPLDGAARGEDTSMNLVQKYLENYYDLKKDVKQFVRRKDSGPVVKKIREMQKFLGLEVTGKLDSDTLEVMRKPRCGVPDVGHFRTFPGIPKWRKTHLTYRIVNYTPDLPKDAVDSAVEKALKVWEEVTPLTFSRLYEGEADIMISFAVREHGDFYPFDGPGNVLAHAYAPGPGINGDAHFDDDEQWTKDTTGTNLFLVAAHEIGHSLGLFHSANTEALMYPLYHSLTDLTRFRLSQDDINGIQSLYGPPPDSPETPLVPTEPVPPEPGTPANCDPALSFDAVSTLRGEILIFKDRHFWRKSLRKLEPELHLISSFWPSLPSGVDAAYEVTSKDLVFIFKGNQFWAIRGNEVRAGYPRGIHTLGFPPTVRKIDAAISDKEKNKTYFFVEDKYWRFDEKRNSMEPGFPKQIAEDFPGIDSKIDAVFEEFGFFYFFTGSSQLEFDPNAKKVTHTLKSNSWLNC
Description: Inhibition of human fibroblast stromelysin (MMP-3)

Sequence of 72 kDa type IV collagenase (P08253 whole entry): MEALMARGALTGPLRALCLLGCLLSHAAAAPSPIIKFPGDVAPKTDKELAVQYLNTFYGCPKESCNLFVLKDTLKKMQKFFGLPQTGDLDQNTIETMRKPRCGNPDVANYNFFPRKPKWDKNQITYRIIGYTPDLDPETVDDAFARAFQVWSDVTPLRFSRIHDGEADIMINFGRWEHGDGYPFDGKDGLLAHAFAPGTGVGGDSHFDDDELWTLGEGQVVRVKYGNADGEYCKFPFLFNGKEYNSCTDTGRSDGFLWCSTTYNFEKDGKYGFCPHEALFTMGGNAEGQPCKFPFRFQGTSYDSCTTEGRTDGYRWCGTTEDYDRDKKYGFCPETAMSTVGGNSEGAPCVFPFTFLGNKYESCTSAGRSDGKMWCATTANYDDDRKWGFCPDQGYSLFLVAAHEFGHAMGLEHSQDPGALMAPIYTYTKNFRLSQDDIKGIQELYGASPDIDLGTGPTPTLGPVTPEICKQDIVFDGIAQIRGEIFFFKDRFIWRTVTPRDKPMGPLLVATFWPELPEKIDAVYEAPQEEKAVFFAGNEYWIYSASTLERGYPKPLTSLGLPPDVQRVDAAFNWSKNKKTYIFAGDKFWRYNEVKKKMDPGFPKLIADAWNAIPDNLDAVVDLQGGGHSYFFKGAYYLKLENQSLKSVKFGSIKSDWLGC

Row | Ki (Interstitial collagenase) | Ki [1] | Ki (Stromelysin-1) | SMILES
1 | > 10000 nM | 340 nM | 570 nM | CCCCCCCC[C@H](N[C@H](C)C(=O)O)C(=O)N[C@@H](CC(C)C)C(=O)Nc1ccccc1
2 | 760 nM | 200 nM |  | CC(C)C[C@H](NC(=O)[C@H](CCc1ccccc1)N[C@H](C)C(=O)O)C(=O)Nc1ccccc1 [L-696418]

More lines, now with the values behind:

Row | SMILES | Ki (Interstitial collagenase) | Ki [1] | Ki (Stromelysin-1)
3 | C[C@@H](N[C@@H](CCCCCCCCCN)C(=O)N[C@@H](CCCN=C(N)N)C(=O)Nc1ccccc1)C(=O)O | > 10000 nM | 110 nM | 370 nM
4 | CCCCCCCC[C@H](N[C@H](C)C(=O)O)C(=O)N[C@@H](CCCN=C(N)N)C(=O)Nc1ccccc1 | > 10000 nM | 120 nM | 1600 nM
5 | CC(C)C[C@H](NC(=O)[C@H](CCCCCCCCCN)N[C@H](C)C(=O)O)C(=O)Nc1ccccc1 | > 10000 nM | 500 nM | 240 nM
6 | CCCCCCCCCC[C@H](N[C@H](C)C(=O)O)C(=O)N[C@@H](CC(C)C)C(=O)Nc1ccccc1 | > 10000 nM | 560 nM | 850 nM
